Here are results for 8 compounds from publication PMC13194042, “GABAA receptor agonists modulate intracellular Ca^2+ levels in activated human CD4^+ T cells” (Frontiers in Immunology, 2026).

The subject of assay [1] is human resting CD4+ T cells. The assay is described as follows: Calcium imaging in resting CD4+ T cells. Type of assay: cell-based. The conditions noted are these: GABA 500 nM; n = 47 cells. The procedure:
Calcium imaging was performed as previously described ([12]). In brief, cells were loaded with 3 μM Fluo-8 AM calcium indicator (AAT Bioquest, Pleasanton, CA, USA) for 10 min at 37 °C and then seeded onto coverslips coated with 5% (3-aminopropyl)triethoxysilane (Sigma Aldrich) for 20 min at 37 °C. Calcium imaging was performed using a Zeiss LSM700 confocal microscope with a ×20 objective, capturing images at 0.5-s intervals. The recording solution was prepared by mixing two types of RPMI 1640 media, one containing 11 mM glucose (Gibco, Fisher Scientific, Sweden) and the other is glucose-free (Gibco, Fisher Scientific, Sweden). They were mixed in a 1:1 ratio, giving a final glucose concentration of 5.5 mM. The drugs were diluted in the recording solution and perfused into the chamber at specific concentrations using a peristaltic pump. After each drug application, the cells were perfused with the recording solution only to remove the drug. When the cells were again in the recording solution only, then the next test drug concentration was perfused into the chamber. […] The area around the individual cells was marked, and absolute fluorescence intensity values (F) were extracted using ZENBlue software. The relative intensity (F/Fmedian) for each cell was calculated for every recorded image and plotted against time. […]

In assay [2] the target is T1, GABAA receptors in activated human CD4+ T cells (Homo sapiens, UniProt P28476). The note with it: ref [12], cited from earlier work.
Assay [3] deals with T1, GABAA receptors in activated human CD4+ T cells. The assay is described as follows: Calcium imaging: agonist-evoked intracellular Ca2+ response in activated CD4+ T cells. It counts as cell-based. From the text:
Human blood samples and blood buffy coats were obtained from Uppsala University Hospital (Uppsala Akademiska sjukhuset), the protocol of which was approved by the Regional Research Ethics Committee in Uppsala (Dnr 2013/347). All individuals who donated blood were voluntarily recruited. Peripheral blood mononuclear cells (PBMCs) were isolated from blood samples using density-gradient centrifugation with Ficoll-Paque™ PLUS (Sigma Aldrich, Sweden). Subsequently, CD4^+ T lymphocytes were isolated from the PBMCs by negative selection, utilizing a human CD4^+ T lymphocyte isolation kit (Miltenyi Biotec, Germany) as per the manufacturer’s instructions. The freshly isolated CD4^+ T lymphocytes (1 million cells/mL) were suspended in human plasma-like medium (HPLM) (Gibco, Fisher Scientific, Sweden) containing 10% heat-inactivated dialyzed fetal bovine serum (Gibco, Fisher Scientific, Sweden), 100 μg/mL streptomycin, 100 U/mL penicillin (Gibco, Fisher Scientific, Sweden), and 5 μM β-mercaptoethanol (Gibco, Fisher Scientific, Sweden). The cells were activated in a 96-well plate (1 × 10^5–1.2 × 10^5 cells/well) with 3 μg/mL plate-bound anti-CD3 antibody (BD Biosciences, USA) for 72 h. Insulin (1 nM) was added at 48 h after the activation of the cells. The anti-CD3 concentration (5 μg/mL) used by Jacobs et al. ([14]) is similar to the one employed in this study. […] Akt-dependent signaling is activated by insulin at 48 h post-activation and is reminiscent of the anti-CD28-evoked signaling ([14]).
Calcium imaging was performed as previously described ([12]). In brief, cells were loaded with 3 μM Fluo-8 AM calcium indicator (AAT Bioquest, Pleasanton, CA, USA) for 10 min at 37 °C and then seeded onto coverslips coated with 5% (3-aminopropyl)triethoxysilane (Sigma Aldrich) for 20 min at 37 °C. Calcium imaging was performed using a Zeiss LSM700 confocal microscope with a ×20 objective, capturing images at 0.5-s intervals. The recording solution was prepared by mixing two types of RPMI 1640 media, one containing 11 mM glucose (Gibco, Fisher Scientific, Sweden) and the other is glucose-free (Gibco, Fisher Scientific, Sweden). They were mixed in a 1:1 ratio, giving a final glucose concentration of 5.5 mM. The drugs were diluted in the recording solution and perfused into the chamber at specific concentrations using a peristaltic pump. After each drug application, the cells were perfused with the recording solution only to remove the drug. When the cells were again in the recording solution only, then the next test drug concentration was perfused into the chamber. This was done so that the receptors/cells had always been in a drug-free solution before a drug application, thus avoiding potential cumulative drug effects such as run-down or desensitization. The area around the individual cells was marked, and absolute fluorescence intensity values (F) were extracted using ZENBlue software. The relative intensity (F/Fmedian) for each cell was calculated for every recorded image and plotted against time. The peak relative intensity during the drug application was considered the drug’s response. Data are presented for all cells as scatter plots and box and whisker plots.
Single-cell data presentation and agonist-Ca^2+-response data were fitted in GraphPad Prism 10 (GraphPad Software Inc., La Jolla, CA, USA). The data were fitted using nonlinear regression with a standard dose–response model:
(F/Fmedian)max=[agonist]/[agonist]+(EC50)agonist

For a further assay, the target named is T2, KCa3.1 channels (Homo sapiens, UniProt O15554).
T2 construct: endogenous in cells
The assay is described as follows: Calcium imaging: block of GABA-activated Ca2+ signal by KCa3.1 blocker. It counts as cell-based. The note with it: GABA 500 nM; TRAM-34 1 µM; average, n = 169 cells, N = 3 donors.

The next assay deals with T3, CRAC channel current (Homo sapiens, UniProt Q96D31).
T3 construct: endogenous in cells
The assay is described as follows: Whole-cell patch-clamp recording of CRAC-channel-mediated current. Type of assay: cell-based.

The target of another assay is T4, CRAC channels (Homo sapiens, UniProt Q96D31).
T4 construct: endogenous in cells
Nature of the assay: Calcium imaging: block of GABA-mediated Ca2+ influx by CRAC channel inhibitor. The note with it: YM-58483 10 μM, acute application; n = 116 cells, N = 3 donors. Type of assay: cell-based. An excerpt:
Human blood samples and blood buffy coats were obtained from Uppsala University Hospital (Uppsala Akademiska sjukhuset), the protocol of which was approved by the Regional Research Ethics Committee in Uppsala (Dnr 2013/347). All individuals who donated blood were voluntarily recruited. Peripheral blood mononuclear cells (PBMCs) were isolated from blood samples using density-gradient centrifugation with Ficoll-Paque™ PLUS (Sigma Aldrich, Sweden). Subsequently, CD4^+ T lymphocytes were isolated from the PBMCs by negative selection, utilizing a human CD4^+ T lymphocyte isolation kit (Miltenyi Biotec, Germany) as per the manufacturer’s instructions. The freshly isolated CD4^+ T lymphocytes (1 million cells/mL) were suspended in human plasma-like medium (HPLM) (Gibco, Fisher Scientific, Sweden) containing 10% heat-inactivated dialyzed fetal bovine serum (Gibco, Fisher Scientific, Sweden), 100 μg/mL streptomycin, 100 U/mL penicillin (Gibco, Fisher Scientific, Sweden), and 5 μM β-mercaptoethanol (Gibco, Fisher Scientific, Sweden). […]
Calcium imaging was performed as previously described ([12]). […] The area around the individual cells was marked, and absolute fluorescence intensity values (F) were extracted using ZENBlue software. The relative intensity (F/Fmedian) for each cell was calculated for every recorded image and plotted against time. […]

[4] abbreviates: read-out: EC50, half-maximal activation concentration of the evoked Ca2+ signal; activated CD4+ T cells, 72 h post-activation, 1 nM insulin last 24 h, 5.5 mM glucose.

Like-named read-outs stand apart in the source and are kept apart here.

T1 sequence (P28476 21-465): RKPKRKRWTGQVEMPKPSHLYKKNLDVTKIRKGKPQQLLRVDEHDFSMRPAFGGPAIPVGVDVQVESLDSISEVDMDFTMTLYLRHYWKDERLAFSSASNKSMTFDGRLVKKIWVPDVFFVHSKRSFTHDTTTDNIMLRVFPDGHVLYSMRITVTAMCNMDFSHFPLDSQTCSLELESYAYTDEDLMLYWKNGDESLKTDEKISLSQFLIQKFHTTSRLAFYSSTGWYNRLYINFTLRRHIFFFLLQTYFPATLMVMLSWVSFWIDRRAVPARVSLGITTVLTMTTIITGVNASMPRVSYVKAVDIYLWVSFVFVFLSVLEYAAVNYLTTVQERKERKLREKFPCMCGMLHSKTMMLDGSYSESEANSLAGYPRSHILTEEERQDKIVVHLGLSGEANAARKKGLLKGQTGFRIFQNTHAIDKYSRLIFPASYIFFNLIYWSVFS
T3 sequence (Q96D31 whole entry): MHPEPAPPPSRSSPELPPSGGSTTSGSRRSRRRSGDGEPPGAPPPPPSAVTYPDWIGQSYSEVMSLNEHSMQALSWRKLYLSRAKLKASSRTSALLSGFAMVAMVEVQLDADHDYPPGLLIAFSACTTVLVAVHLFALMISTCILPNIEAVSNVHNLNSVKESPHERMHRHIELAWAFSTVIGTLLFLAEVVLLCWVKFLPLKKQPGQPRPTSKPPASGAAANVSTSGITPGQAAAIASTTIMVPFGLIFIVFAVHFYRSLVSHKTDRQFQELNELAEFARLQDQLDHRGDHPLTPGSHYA
T2 sequence (O15554 whole entry): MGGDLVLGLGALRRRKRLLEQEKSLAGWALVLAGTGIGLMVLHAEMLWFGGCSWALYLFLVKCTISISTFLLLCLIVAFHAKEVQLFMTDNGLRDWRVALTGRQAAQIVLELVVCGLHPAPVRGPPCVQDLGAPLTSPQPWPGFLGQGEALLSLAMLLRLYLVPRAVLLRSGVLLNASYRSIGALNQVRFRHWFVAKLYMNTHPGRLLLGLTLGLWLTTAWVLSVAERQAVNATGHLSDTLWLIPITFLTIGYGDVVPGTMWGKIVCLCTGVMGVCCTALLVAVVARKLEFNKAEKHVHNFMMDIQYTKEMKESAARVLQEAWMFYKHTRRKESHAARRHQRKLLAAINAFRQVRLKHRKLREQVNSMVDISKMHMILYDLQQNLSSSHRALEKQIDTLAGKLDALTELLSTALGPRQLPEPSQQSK
T4 sequence (Q96D31 whole entry): as the sequence (Q96D31 whole entry) above
Text for CRAC channel current: To study the effect of YM58483 and picrotoxin (PTX) on CRAC-channel-mediated currents, the electrophysiological patch-clamp recordings were done in the whole-cell configuration. The extracellular solution was composed of the following (in mM): 155 NaCl, 4.5 KCl, 2 CaCl2, 1 MgCl2, 5 HEPES, and 5.6 glucose (pH 7.4, adjusted with NaOH). The pipette solution consisted of the following (in mM): 140 Cs methanesulfonate, 10 NaCl, 3 MgCl2, 10 HEPES, and 10 EGTA (pH 7.3, with CsOH). We further examined the recovery of currents during repeated drug applications to evaluate the level of run-down and desensitization, if present. In these experiments, in order to keep the intracellular chloride concentration intact, gramicidin (2.6 μg/mL) was used to obtain the perforated configuration. The extracellular solution (in mM) contained the following: 157 NaCl, 4.5 KCl, 0.5 CaCl2, 1 MgCl2, 5 HEPES, and 5.6 glucose (pH 7.4, adjusted with NaOH), and the pipette solution consisted of the following (mM): 149 KCl, 2 CaCl2, 1 MgCl2, 1 NaCl, 10 HEPES, and 5.6 glucose (pH 7.3, adjusted with KOH). […] Recordings were performed with the help of an Axopatch 200B amplifier, filtered at 2 kHz, and digitized at 10 kHz with an analog-to-digital converter. For the recordings, the Clampex 10.5 (Molecular Devices, San Jose, CA, USA) program was used. […]
Text for KCa3.1 channels: Peripheral blood mononuclear cells (PBMCs) were isolated from blood samples using density-gradient centrifugation with Ficoll-Paque™ PLUS (Sigma Aldrich, Sweden). Subsequently, CD4^+ T lymphocytes were isolated from the PBMCs by negative selection, utilizing a human CD4^+ T lymphocyte isolation kit (Miltenyi Biotec, Germany) as per the manufacturer’s instructions. The freshly isolated CD4^+ T lymphocytes (1 million cells/mL) were suspended in human plasma-like medium (HPLM) (Gibco, Fisher Scientific, Sweden) containing 10% heat-inactivated dialyzed fetal bovine serum (Gibco, Fisher Scientific, Sweden), 100 μg/mL streptomycin, 100 U/mL penicillin (Gibco, Fisher Scientific, Sweden), and 5 μM β-mercaptoethanol (Gibco, Fisher Scientific, Sweden). The cells were activated in a 96-well plate (1 × 10^5–1.2 × 10^5 cells/well) with 3 μg/mL plate-bound anti-CD3 antibody (BD Biosciences, USA) for 72 h. […]
In brief, cells were loaded with 3 μM Fluo-8 AM calcium indicator (AAT Bioquest, Pleasanton, CA, USA) for 10 min at 37 °C and then seeded onto coverslips coated with 5% (3-aminopropyl)triethoxysilane (Sigma Aldrich) for 20 min at 37 °C. […] The area around the individual cells was marked, and absolute fluorescence intensity values (F) were extracted using ZENBlue software. The relative intensity (F/Fmedian) for each cell was calculated for every recorded image and plotted against time. […]

For the compound `NCCCC(=O)O` [GABA, γ-Aminobutyric acid], in assay [1], the “Ca2+ response in resting CD4+ T cells” value is on record as “does not evoke a calcium response”. In addition, the EC50 in assay [2] (read-out: EC50 of the GABA-evoked Ca2+ signal) was 0.005 nM.

On to `Oc1noc2c1CCNC2` [THIP, 4,5,6,7-tetrahydroisoxazolo(5,4-c)pyridin-3-ol], for which the “relative maximum Ca2+ signal (F/Fmedian)” value in assay [3] (in 100 nM THIP) is on record as 1.20. Moreover, the EC50 in assay [3] (setting [4]) worked out at 0.005 nM.

For the compound `NCc1cc(=O)[nH]o1` [muscimol], the “relative maximum Ca2+ signal (F/Fmedian)” value in assay [3] (at 1 μM muscimol) is “approximately 1.17”. Further, in assay [3] (setting [4]), the EC50 amounted to 0.162 nM.

`Clc1ccccc1C(c1ccccc1)(c1ccccc1)n1cccn1` [TRAM-34]: the “inhibition of GABA-induced increase in intracellular Ca2+ levels” value at KCa3.1 channels is about 100%.

As to Picrotoxin, the “effect on the Ca2+ (CRAC channel) current” value on CRAC channel current (whole-cell, current at -80 mV normalized to control, n = 3 cells, N = 2 donors) is recorded as “did not reduce the Ca^2+ current”. Besides, the “effect on muscimol (500 nM)- or TACA (500 nM)-evoked Ca2+ signals” value in assay [2] is “blocked”.

`NC/C=C/C(=O)O` [TACA, trans-4-aminocrotonic acid]: in assay [3] (TACA vs GABA), the “EC50 for the Ca2+-evoked signal relative to GABA (fold higher)” value is recorded as “approximately 500 fold”. Further, in assay [3] (in 500 nM TACA), the “relative maximum Ca2+ signal (F/Fmedian)” value is 1.10. In assay [3] (setting [4]), the EC50 is 2.2 nM.

Turning to `O=C(O)C1=CCNCC1` [isoguvacine], in assay [3] (activated CD4+ T cells, 72 h post-activation, 1 nM insulin last 24 h, 5.5 mM glucose; read-out: EC50, half-maximal activation concentration of the evoked Ca2+ signal), the EC50 came to 54.4 nM. The “relative maximum Ca2+ signal (F/Fmedian)” value in assay [3] (in 10 μM isoguvacine) turned out to be 1.13.

Turning to `Cc1nnsc1C(=O)Nc1ccc(-n2nc(C(F)(F)F)cc2C(F)(F)F)cc1` [YM58483], on CRAC channels, the “effect on GABA (500 nM)-evoked increase in intracellular Ca2+ levels” value was “inhibited”. The “reduction of the Ca2+ (CRAC channel) current” value at CRAC channel current (10 μM YM58483, whole-cell, voltage ramps, current normalized to control) is “approximately 40%”.
